The values below come from patent EP0595557A1, “New substituted azetidinones as anti-inflammatory and antidegenerative agents” (MERCK & CO. INC., priority 1992, dated 1994).

This experiment addresses T1, Human Polymorphonuclear Leukocyte Elastase (Homo sapiens, UniProt P08246).
T1 construct: Crude extract of human polymorphonuclear leukocytes (PMN) containing elastase activity; from tissue; host or cells: human polymorphonuclear leukocytes (crude extract)
T1 sequence (P08246 30-267): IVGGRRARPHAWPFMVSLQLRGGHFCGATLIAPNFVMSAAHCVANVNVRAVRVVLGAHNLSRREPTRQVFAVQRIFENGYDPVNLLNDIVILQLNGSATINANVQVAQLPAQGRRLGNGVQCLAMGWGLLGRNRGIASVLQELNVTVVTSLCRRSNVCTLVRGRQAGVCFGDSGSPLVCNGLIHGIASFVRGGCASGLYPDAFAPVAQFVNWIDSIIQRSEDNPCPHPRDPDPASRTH
Description: Enzyme assay for inhibition of human polymorphonuclear leukocyte elastase via hydrolysis of Boc-AAPAN or Boc-AAPVN. The experiment is classed as biochemical. The note with it: pH 7.5, second order rate constant for inactivation of the enzyme, expressed to the nearest thousand, read-out: Kobs/[I]. The essentials:
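Crude human PMN extract as enzyme source, with 0.2 mM Boc-AAPAN in 0.05M TES buffer pH 7.5. Inhibitors in DMSO were added to substrate before the extract, and rate was followed as ΔOD/min at 410 mµ. Values are kobs/I, the second-order inactivation rate constant (per mole per second).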

As for `CCC[C@@H](NC(=O)N1C(=O)C(CC)(CC)[C@@H]1Oc1ccc(C(=O)N(C)CCN(C)Cc2cccc(C#N)c2)cc1)c1ccc(C)cc1` [Compound 179], the kinact/KI was found to be 2.45e+06 M⁻¹ s⁻¹.

`CCC[C@@H](NC(=O)N1C(=O)C(CC)(CC)[C@@H]1Oc1ccc(C(=O)N(C)CCN(C)Cc2ccc(C(F)(F)F)cc2)cc1)c1ccc(C)cc1` [Compound 180]: the kinact/KI came to 905000 M⁻¹ s⁻¹.

On to `CCC[C@@H](NC(=O)N1C(=O)C(CC)(CC)[C@@H]1Oc1ccc(C(=O)N(C)CCN(C)Cc2cccc(C(F)(F)F)c2)cc1)c1ccc(C)cc1` [Compound 181], for which the kinact/KI came to 564000 M⁻¹ s⁻¹.

As to `CCC[C@@H](NC(=O)N1C(=O)C(CC)(CC)[C@@H]1Oc1ccc(C(=O)N(C)CCN(C)Cc2ccc(F)cc2)cc1)c1ccc(C)cc1` [Compound 182], the kinact/KI was 2.14e+06 M⁻¹ s⁻¹.

For the compound `CCC[C@@H](NC(=O)N1C(=O)C(CC)(CC)[C@@H]1Oc1ccc(C(=O)NC(C)[PH](=O)O)cc1)c1ccc(C)cc1` (some centres unmarked) [Compound 183], the kinact/KI amounted to 977000 M⁻¹ s⁻¹.

Consider `CCC[C@@H](NC(=O)N1C(=O)C(CC)(CC)[C@@H]1Oc1ccc(C(=O)N[C@@H](CCCCN)C(=O)O)cc1)c1ccc(C)cc1` [Compound 184], for which the kinact/KI was 755000 M⁻¹ s⁻¹.

Regarding `CCC[C@@H](NC(=O)N1C(=O)C(CC)(CC)[C@@H]1Oc1ccc(C(=O)N(C)CCN(C)CC2CC2)cc1)c1ccc(C)cc1` [Compound 185], the kinact/KI was 1.79e+06 M⁻¹ s⁻¹.

`CCC[C@@H](NC(=O)N1C(=O)C(CC)(CC)[C@@H]1Oc1ccc(C(=O)N(C)CC(c2ccccc2)N(C)C)cc1)c1ccc(C)cc1` (some centres unmarked) [Compound 186]: the kinact/KI was determined as 1.05e+06 M⁻¹ s⁻¹.

In the case of `CCC[C@@H](NC(=O)N1C(=O)C(CC)(CC)[C@@H]1Oc1ccc(C(=O)N(C)C)cc1)c1ccc(C)cc1` [Compound 187], the kinact/KI is 1.75e+06 M⁻¹ s⁻¹.

`CCC[C@@H](NC(=O)N1C(=O)C(CC)(CC)[C@@H]1Oc1ccc(C(=O)N(C)Cc2ccccc2)cc1)c1ccc(C)cc1` [Compound 188]: the kinact/KI came out at 1.84e+06 M⁻¹ s⁻¹.

As to `CCC[C@@H](NC(=O)N1C(=O)C(CC)(CC)[C@@H]1Oc1ccc(C(=O)N(C)C2CCCN(Cc3ccccc3)C2)cc1)c1ccc(C)cc1` (some centres unmarked) [Compound 189], the kinact/KI was 1.88e+06 M⁻¹ s⁻¹.

On to `CCC[C@@H](NC(=O)N1C(=O)C(CC)(CC)[C@@H]1Oc1ccc(C(=O)NOCc2ccccc2)cc1)c1ccc(C)cc1` [Compound 190], for which the kinact/KI was 1.8e+06 M⁻¹ s⁻¹.

As for `CCC[C@@H](NC(=O)N1C(=O)C(CC)(CC)[C@@H]1Oc1ccc(C(=O)N(CCN(C)Cc2ccccc2)Cc2cccnc2)cc1)c1ccc(C)cc1` [Compound 191], the kinact/KI amounted to 2.54e+06 M⁻¹ s⁻¹.

Regarding `CCC[C@@H](NC(=O)N1C(=O)C(CC)(CC)[C@@H]1Oc1ccc(C(=O)N(C)CCN(C)Cc2ccc(OC)cc2)cc1)c1ccc(C)cc1` [Compound 192], the kinact/KI was 1.78e+06 M⁻¹ s⁻¹.

`CCC[C@@H](NC(=O)N1C(=O)C(CC)(CC)[C@@H]1Oc1ccc(C(=O)N(CCN(C)Cc2ccccc2)Cc2ccncc2)cc1)c1ccc(C)cc1` [Compound 193]: the kinact/KI was 2.24e+06 M⁻¹ s⁻¹.

Regarding `CCC[C@@H](NC(=O)N1C(=O)C(CC)(CC)[C@@H]1Oc1ccc(C(=O)N(CCN(C)Cc2ccccc2)Cc2ccccn2)cc1)c1ccc(C)cc1` [Compound 194], the kinact/KI came to 2.47e+06 M⁻¹ s⁻¹.

Take `CCC[C@@H](NC(=O)N1C(=O)C(CC)(CC)[C@@H]1Oc1ccc(C(=O)N(C)CCN(C)Cc2ccc(C)cc2C)cc1)c1ccc(C)cc1` [Compound 195]: the kinact/KI amounted to 1.12e+06 M⁻¹ s⁻¹.

Take `CCC[C@@H](NC(=O)N1C(=O)C(CC)(CC)[C@@H]1Oc1ccc(C(=O)N(C)CCN2CC(C)OC(C)C2)cc1)c1ccc(C)cc1` (some centres unmarked) [Compound 196]: the kinact/KI amounted to 1.53e+06 M⁻¹ s⁻¹.

Take `CCC[C@@H](NC(=O)N1C(=O)C(CC)(CC)[C@@H]1Oc1ccc(C(N)=O)cc1)c1ccc(C)cc1` [Compound 197]: the kinact/KI was 1.64e+06 M⁻¹ s⁻¹.

`CCC[C@@H](NC(=O)N1C(=O)C(CC)(CC)[C@@H]1Oc1ccc(C(=O)NC)cc1)c1ccc(C)cc1` [Compound 198]: the kinact/KI was 1.82e+06 M⁻¹ s⁻¹.

Regarding `CCC[C@@H](NC(=O)N1C(=O)C(CC)(CC)[C@@H]1Oc1ccc(C(=O)N2CCOCC2)cc1)c1ccc(C)cc1` [Compound 199], the kinact/KI worked out at 2.38e+06 M⁻¹ s⁻¹.

With `CCC[C@@H](NC(=O)N1C(=O)C(CC)(CC)[C@@H]1Oc1ccc(C(=O)N2C[C@@H](C)O[C@@H](C)C2)cc1)c1ccc(C)cc1` [Compound 200], the kinact/KI came to 1.84e+06 M⁻¹ s⁻¹.

Regarding `CCCCNC(=O)c1ccc(OC2N(C(=O)NC(CCC)c3ccc(C)cc3)C(=O)C2(CC)CC)cc1` (centres unmarked) [Compound 201], the kinact/KI is 2.46e+06 M⁻¹ s⁻¹.

In the case of `CCC[C@@H](NC(=O)N1C(=O)C(CC)(CC)[C@@H]1Oc1ccc(C(=O)N(C)CCN(C)C(=NC#N)Nc2ccccc2)cc1)c1ccc(C)cc1` [Compound 202], the kinact/KI turned out to be 1.76e+06 M⁻¹ s⁻¹.

As for `CCC[C@@H](NC(=O)N1C(=O)C(CC)(CC)[C@@H]1Oc1ccc(C(=O)N(C)CCN(C)Cc2cccc(F)c2)cc1)c1ccc(C)cc1` [Compound 203], the kinact/KI is 1.26e+06 M⁻¹ s⁻¹.

With `CCC[C@@H](NC(=O)N1C(=O)C(CC)(CC)[C@@H]1Oc1ccc(C(=O)N(C)CCN(C)Cc2ccccc2Cl)cc1)c1ccc(C)cc1` [Compound 204], the kinact/KI came out at 1.59e+06 M⁻¹ s⁻¹.

On to `CCC[C@@H](NC(=O)N1C(=O)C(CC)(CC)[C@@H]1Oc1ccc(C(=O)N(C)CCN(C)Cc2cccc(OC)c2)cc1)c1ccc(C)cc1` [Compound 205], for which the kinact/KI amounted to 1.91e+06 M⁻¹ s⁻¹.

With `CCC[C@@H](NC(=O)N1C(=O)C(CC)(CC)[C@@H]1Oc1ccc(C(=O)N(C)CCN(C)Cc2cc(OC)cc(OC)c2)cc1)c1ccc(C)cc1` [Compound 206], the kinact/KI was found to be 1.74e+06 M⁻¹ s⁻¹.

For `CCC[C@@H](NC(=O)N1C(=O)C(CC)(CC)[C@@H]1Oc1ccc(C(=O)N2CCc3cc(OC)c(OC)cc3C2)cc1)c1ccc(C)cc1` [Compound 207], the kinact/KI came out at 2.7e+06 M⁻¹ s⁻¹.

`CCC[C@@H](NC(=O)N1C(=O)C(CC)(CC)[C@@H]1Oc1ccc(C(=O)N(C)C2CCN(Cc3ccccc3)CC2)cc1)c1ccc(C)cc1` [Compound 208]: the kinact/KI is 1.95e+06 M⁻¹ s⁻¹.

For `CCC[C@@H](NC(=O)N1C(=O)C(CC)(CC)[C@@H]1Oc1ccc(C(=O)NCCCC[C@H](N)C(=O)O)cc1)c1ccc(C)cc1` [Compound 209], the kinact/KI turned out to be 929000 M⁻¹ s⁻¹.

Take `CCC[C@@H](NC(=O)N1C(=O)C(CC)(CC)[C@@H]1Oc1ccc(C(=O)N(C)CCN(C)C2C3CC4CC(C3)CC2C4)cc1)c1ccc(C)cc1` (some centres unmarked) [Compound 210]: the kinact/KI amounted to 2.13e+06 M⁻¹ s⁻¹.

On to `CCC[C@@H](NC(=O)N1C(=O)C(CC)(CC)[C@@H]1Oc1ccc(C(=O)N(C)C2CCNCC2)cc1)c1ccc(C)cc1` [Compound 211], for which the kinact/KI is 85000 M⁻¹ s⁻¹.

As to `CCC[C@@H](NC(=O)N1C(=O)C(CC)(CC)[C@@H]1Oc1ccc(C(=O)N2CC3CC2CN3C)cc1)c1ccc(C)cc1` (some centres unmarked) [Compound 212], the kinact/KI is 860000 M⁻¹ s⁻¹.

Take `CCC[C@@H](NC(=O)N1C(=O)C(CC)(CC)[C@@H]1Oc1ccc(C(=O)N(C)CC(=O)O)cc1)c1ccc(C)cc1` [Compound 213]: the kinact/KI was found to be 984000 M⁻¹ s⁻¹.

Take `CCC[C@@H](NC(=O)N1C(=O)C(CC)(CC)[C@@H]1Oc1ccc(C(=O)N(C)CCCN(C)CC)cc1)c1ccc(C)cc1` [Compound 214]: the kinact/KI came out at 1.1e+06 M⁻¹ s⁻¹.

On to `CCC[C@@H](NC(=O)N1C(=O)C(CC)(CC)[C@@H]1Oc1ccc(C(=O)N(C)C2CCN(C)CC2)cc1)c1ccc(C)cc1` [Compound 215], for which the kinact/KI is 1.28e+06 M⁻¹ s⁻¹.

For the compound `CCC[C@@H](NC(=O)N1C(=O)C(CC)(CC)[C@@H]1Oc1ccc(C(=O)N(C)C2CCN(CCC)CC2)cc1)c1ccc(C)cc1` [Compound 216], the kinact/KI worked out at 1.31e+06 M⁻¹ s⁻¹.

Turning to `CCC[C@@H](NC(=O)N1C(=O)C(CC)(CC)[C@@H]1Oc1ccc(C(=O)N(C)C2CCN(CC)CC2)cc1)c1ccc(C)cc1` [Compound 217], the kinact/KI is 1.42e+06 M⁻¹ s⁻¹.

Take `CCC[C@@H](NC(=O)N1C(=O)C(CC)(CC)[C@@H]1Oc1ccc(C(=O)N(C)CC(C)N(C)Cc2ccccc2)cc1)c1ccc(C)cc1` (some centres unmarked) [Compound 218]: the kinact/KI came out at 2.12e+06 M⁻¹ s⁻¹.

In the case of `CCC[C@@H](NC(=O)N1C(=O)C(CC)(CC)[C@@H]1Oc1ccc(C(=O)N(C)CC(C)N(C)C)cc1)c1ccc(C)cc1` (some centres unmarked) [Compound 219], the kinact/KI was 1.59e+06 M⁻¹ s⁻¹.

Take `CCC[C@@H](NC(=O)N1C(=O)C(CC)(CC)[C@@H]1Oc1ccc(C(=O)N(C)CCN(C)C2CC3CCC2C3)cc1)c1ccc(C)cc1` (some centres unmarked) [Compound 220]: the kinact/KI amounted to 1.87e+06 M⁻¹ s⁻¹.

Turning to `CCC[C@@H](NC(=O)N1C(=O)C(CC)(CC)[C@@H]1Oc1ccc(C(=O)N(C)CCNC2C3CC4CC(C3)CC2C4)cc1)c1ccc(C)cc1` (some centres unmarked) [Compound 221], the kinact/KI came out at 3.01e+06 M⁻¹ s⁻¹.

Take `CCC[C@@H](NC(=O)N1C(=O)C(CC)(CC)[C@@H]1Oc1ccc(C(=O)N(C)CCN(C)C2CCC3CC2C3(C)C)cc1)c1ccc(C)cc1` (some centres unmarked) [Compound 222]: the kinact/KI worked out at 2.29e+06 M⁻¹ s⁻¹.

As for `CCC[C@@H](NC(=O)N1C(=O)C(CC)(CC)[C@@H]1Oc1ccc(C(=O)N(C)CCN(C)C2CCC3CCC2C3)cc1)c1ccc(C)cc1` (some centres unmarked) [Compound 223], the kinact/KI came to 2.58e+06 M⁻¹ s⁻¹.

Turning to `CCC[C@@H](NC(=O)N1C(=O)C(CC)(CC)[C@@H]1Oc1ccc(C(=O)N(C)CCN(C)C2=CCCCC2)cc1)c1ccc(C)cc1` [Compound 225], the kinact/KI was found to be 1.84e+06 M⁻¹ s⁻¹.

Take `C=CC(C)(C)NCCN(C)C(=O)c1ccc(O[C@@H]2N(C(=O)N[C@H](CCC)c3ccc(C)cc3)C(=O)C2(CC)CC)cc1` [Compound 226]: the kinact/KI worked out at 1.31e+06 M⁻¹ s⁻¹.

As to `CCC[C@@H](NC(=O)N1C(=O)C(CC)(CC)[C@@H]1Oc1ccc(C(=O)N2CCC[C@H]2C(N)=O)cc1)c1ccc(C)cc1` [Compound 227], the kinact/KI was found to be 931000 M⁻¹ s⁻¹.

Take `CCC[C@@H](NC(=O)N1C(=O)C(CC)(CC)[C@@H]1Oc1ccc(C(=O)N2CCCCC2CO)cc1)c1ccc(C)cc1` (some centres unmarked) [Compound 228]: the kinact/KI turned out to be 50000 M⁻¹ s⁻¹.

`CCC[C@@H](NC(=O)N1C(=O)C(CC)(CC)[C@@H]1Oc1ccc(C(=O)N2CCC(N(C)C)C2)cc1)c1ccc(C)cc1` (some centres unmarked) [Compound 229]: the kinact/KI turned out to be 1.34e+06 M⁻¹ s⁻¹.
